pIC50: −log10 of the molar value.
Each molecule was assayed against T1, mTOR (Homo sapiens, UniProt P42345) (assay: Biological Assay: mTOR enzyme activity, mTOR immunoprecipitated from HeLa cell cytoplasmic extract, recombinant PHAS-1 as substrate). Conditions: Biological Assay, upper bounds; read-out: IC50 values against mTOR.
T1 construct: mTOR protein was isolated from HeLa cell cytoplasmic extract by immunoprecipitation; endogenous in cells; host or cells: HeLa cell cytoplasmic extract (immunoprecipitate)
Type: biochemical

pIC50 | Compound
> 6.00 | Cc1cscc1-c1ccc2c(N3CCOCC3)nc(N3C[C@@H](C)O[C@@H](C)C3)nc2n1 [Example 1v]
> 7.00 | C[C@@H]1CN(c2nc(N3CCOCC3)c3ccc(-c4ccc(O)cc4)nc3n2)C[C@H](C)O1 [Example 1l]
> 6.00 | Cc1ccc(-c2ccc3c(N4CCOCC4)nc(N4C[C@@H](C)O[C@@H](C)C4)nc3n2)s1 [Example 1t]
> 5.00 | Cc1cccnc1Nc1ccc2c(N3CCOCC3)nc(N3C[C@@H](C)O[C@@H](C)C3)nc2n1 [Example 2bg]
> 7.00 | C[C@@H]1CN(c2nc(N3CCOCC3)c3ccc(-c4ccsc4)nc3n2)C[C@H](C)O1 [Example 1i]
> 6.00 | C[C@@H]1CN(c2nc(N3CCOCC3)c3ccc(-c4ccc(C=O)s4)nc3n2)C[C@H](C)O1 [Example 1ap]
> 7.00 | COc1ccc(-c2ccc3c(N4CCOCC4)nc(N4C[C@@H](C)O[C@@H](C)C4)nc3n2)cc1 [Example 1e]
> 6.00 | C[C@@H]1CN(c2nc(N3CCOCC3)c3ccc(Nc4nc[nH]c4C#N)nc3n2)C[C@H](C)O1 [Example 2ar]
> 6.00 | COc1ccc(-c2ccc3c(N4C[C@@H](C)O[C@@H](C)C4)nc(N4CCOCC4)nc3n2)cc1CO [Example 1ae]
> 5.00 | C[C@@H]1CN(c2nc(N3CCOCC3)c3ccc(NS(C)(=O)=O)nc3n2)C[C@H](C)O1 [Example 6]
> 6.00 | C[C@@H]1CN(c2nc(N3CCOCC3)c3ccc(NC4CC4)nc3n2)C[C@H](C)O1 [Example 2ah]
> 5.00 | COC(=O)c1ccc(Nc2ccc3c(N4CCOCC4)nc(N4C[C@@H](C)O[C@@H](C)C4)nc3n2)o1 [Example 2an]
> 6.00 | CC(C)c1cccc(Nc2ccc3c(N4CCOCC4)nc(N4C[C@@H](C)O[C@@H](C)C4)nc3n2)c1 [Example 2n]
> 5.00 | C[C@@H]1CN(c2nc(N3CCOCC3)c3ccc(NC(=O)C4CCCC4)nc3n2)C[C@H](C)O1 [Example 5b]
> 5.00 | C[C@@H]1CN(c2nc(N3CCOCC3)c3ccc(NCC4CC4)nc3n2)C[C@H](C)O1 [Example 2aj]
> 6.00 | Cc1cccc(Nc2ccc3c(N4CCOCC4)nc(N4C[C@@H](C)O[C@@H](C)C4)nc3n2)n1 [Example 2be]
> 5.00 | C[C@@H]1CN(c2nc(N3CCOCC3)c3ccc(NC4CCCC4)nc3n2)C[C@H](C)O1 [Example 2ag]
> 5.00 | C[C@@H]1CN(c2nc(N3CCOCC3)c3ccc(NC(=O)c4cnc5ccccc5n4)nc3n2)C[C@H](C)O1 [Example 5e]
> 7.00 | COc1ccc(-c2ccc3c(N4CCOCC4)nc(N4C[C@@H](C)O[C@@H](C)C4)nc3n2)cc1CNCc1cccs1 [Example 8j]
> 5.00 | CCNC(=O)Nc1ccc2c(N3CCOCC3)nc(N3C[C@@H](C)O[C@@H](C)C3)nc2n1 [Example 4a]
> 6.00 | CC(=O)c1ccc(-c2ccc3c(N4CCOCC4)nc(N4C[C@@H](C)O[C@@H](C)C4)nc3n2)s1 [Example 1ag]
> 6.00 | Cc1ccc(Nc2ccc3c(N4CCOCC4)nc(N4C[C@@H](C)O[C@@H](C)C4)nc3n2)cc1 [Example 2j]
> 5.00 | C[C@@H]1CN(c2nc(N3CCOCC3)c3ccc(Nc4ccc5cccc(O)c5n4)nc3n2)C[C@H](C)O1 [Example 2ay]
> 6.00 | COC(=O)c1cccc(-c2ccc3c(N4CCOCC4)nc(N4C[C@@H](C)O[C@@H](C)C4)nc3n2)c1 [Example 1am]
> 6.00 | C[C@H]1CCCCN1c1nc(N2CCOCC2)c2ccc(N)nc2n1 [Example 3b]
> 6.00 | C[C@@H]1CN(c2nc(N3CCOCC3)c3ccc(-c4ccc5c(c4)OCCO5)nc3n2)C[C@H](C)O1 [Example 1at]
> 6.00 | C[C@@H]1CN(c2nc(N3CCOCC3)c3ccc(-c4ccc5[nH]ccc5c4)nc3n2)C[C@H](C)O1 [Example 1x]
> 6.00 | C[C@@H]1CN(c2nc(N3CCOCC3)c3ccc(NC4CCCCC4)nc3n2)C[C@H](C)O1 [Example 2af]
> 6.00 | C[C@@H]1CN(c2nc(N3CCOCC3)c3ccc(Nc4oc(-c5ccccc5)cc4C#N)nc3n2)C[C@H](C)O1 [Example 2ap]
> 6.00 | C[C@@H]1CN(c2nc(N3CCOCC3)c3ccc(-c4ccc([N+](=O)[O-])cc4)nc3n2)C[C@H](C)O1 [Example 1z]

What follows are molecules tested on phosphorylation of Serine 473 in Akt in MDA-MB-468 cells (assay: In Vitro phospho-Ser473 Akt Assay (Acumen Explorer)). Conditions: Homo sapiens, MDA-MB-468, read-out: IC50 values against mTOR (phospho-Ser473 Akt assay).
Type: cell-based

Compound | pIC50
CC(=O)N(C)Cc1ccc(-c2ccc3c(N4CCOC[C@@H]4C)nc(N4CCOC[C@@H]4C)nc3n2)cc1 [Example 15r] | > 4.96
COc1ccc(-c2ccc3c(N4CCOC[C@@H]4C)nc(Nc4ccncn4)nc3n2)cc1CO [Example 28n] | > 4.96
COc1ccc(-c2ccc3c(N4CCOC[C@@H]4C)nc(N4CCC(N5CCCC5)CC4)nc3n2)cc1CO [Example 28ai] | > 4.96
C[C@H]1COCCN1c1nc(N2CCOC[C@@H]2C)c2ccc(-c3ccc(N)cc3)nc2n1 [Example 11az] | > 7.00
C[C@H]1COCCN1c1nc(N2CCOC[C@@H]2C)c2ccc(-c3ccc(CNC4CC4)o3)nc2n1 [Example 17e] | > 4.96
COc1cccc(-c2nc(N3CCOC[C@@H]3C)c3ccc(-c4ccc(OC)c(CO)c4)nc3n2)c1 [Example 29o] | > 4.96
Cc1nn(C)c(C)c1-c1nc(N2CCOC[C@@H]2C)c2ccc(-c3cccc(CO)c3)nc2n1 [Example 29w] | > 4.96
COc1ccc(-c2ccc3c(N4CCOC[C@@H]4C)nc(-c4cccc(CN)c4)nc3n2)cc1CO [Example 29e] | > 4.96
COc1ccc(-c2ccc3c(N4CCOCC4C)nc(N4CCOC[C@@H]4C)nc3n2)cc1CNC1CCOCC1 (stereo partly shown) [Example 14aq] | > 7.00
COc1ccc(-c2ccc3c(N4CCOC[C@@H]4C)nc(-c4cccc(C)c4)nc3n2)cc1CO [Example 29n] | > 4.96
C[C@H]1COCCN1c1nc(N2CCOC[C@@H]2C)c2ccc(-c3cccc(C(=O)N4CC[C@@H](O)C4)c3)nc2n1 [Example 13g] | > 4.96
C[C@H]1COCCN1c1nc(N2CCC(c3ccncc3)CC2)nc2nc(-c3ccc(N)nc3)ccc12 [Example 12e] | > 4.96
COc1cncc(-c2nc(N3CCOC[C@@H]3C)c3ccc(-c4cccc(CO)c4)nc3n2)c1 [Example 29s] | > 4.96
C[C@@H]1CN(c2nc(N3CCOC[C@@H]3C)c3ccc(-c4ccccc4)nc3n2)C[C@H](C)O1 [Example 11j] | > 6.52
COCc1cccc(-c2nc(N3CCOC[C@@H]3C)c3ccc(-c4ccc(OC)c(CO)c4)nc3n2)c1 [Example 29l] | > 4.96
C[C@H]1COCCN1c1nc(N2CCOC[C@@H]2C)c2ccc(-c3cccc(C(=O)NCC(F)(F)F)c3)nc2n1 [Example 13f] | > 4.96
C[C@H]1COCCN1c1nc(N2CCC(CO)CC2)nc2nc(-c3cccc(C(N)=O)c3)ccc12 [Example 12h] | > 4.96

Compound | pIC50
C[C@H]1COCCN1c1nc(N2CCOC[C@@H]2C)c2ccc(-c3ccc(F)c(CNCCF)c3)nc2n1 [Example 14ab] | > 4.96
COc1ccc(-c2ccc3c(N4CCOC[C@@H]4C)nc(N4CCOC[C@@H]4C)nc3n2)cc1CNC1CC1 [Example 14al] | > 7.00
COc1ccc(-c2ccc3c(N4CCOC[C@@H]4C)nc(-c4cccc(C(F)(F)F)c4)nc3n2)cc1CO [Example 29m] | > 4.96
CCN(C)C(=O)c1cc(-c2ccc3c(N4CCOC[C@@H]4C)nc(N4CCOC[C@@H]4C)nc3n2)ccc1OC [Example 13u] | > 4.96
C[C@H]1COCCN1c1nc(N2CCOC[C@@H]2C)c2ccc(-c3ccc4nc[nH]c(=O)c4c3)nc2n1 [Example 11cl] | > 4.96
COCC(=O)NCc1cc(-c2ccc3c(N4CCOC[C@@H]4C)nc(N4CCOC[C@@H]4C)nc3n2)ccc1F [Example 15u] | > 4.96
COc1ccc(-c2ccc3c(N4CCOC[C@@H]4C)nc(-c4cccc([N+](=O)[O-])c4)nc3n2)cc1CO [Example 29i] | > 4.96
C[C@H]1COCCN1c1nc(N2CCOC[C@@H]2C)c2ccc(-c3ccc(F)nc3)nc2n1 [Example 11ah] | > 4.96
COc1ccc(-c2ccc3c(N4CCOC[C@@H]4C)nc(N4CCC(N5CCCCC5)CC4)nc3n2)cc1CO [Example 28z] | > 4.96
COc1ccc(-c2ccc3c(N4CCOCC4C)nc(N4CCOC[C@@H]4C)nc3n2)cc1CNC1CCCCCCC1 (stereo partly shown) [Example 14bf] | > 7.00
C[C@H]1COCCN1c1nc(N2CCOC[C@@H]2C)c2ccc(-c3ccc(F)c(CNC(=O)C4CCC4)c3)nc2n1 [Example 15x] | > 4.96
COc1ccc(-c2ccc3c(N4CCOC[C@@H]4C)nc(Nc4cccnc4)nc3n2)cc1CO [Example 28o] | > 4.96
C[C@H]1COCCN1c1nc(N2CCOC[C@@H]2C)c2ccc(-c3cccc(CS(C)(=O)=O)c3)nc2n1 [Example 14t] | > 4.96
C[C@H]1COCCN1c1nc(N2CCOC[C@@H]2C)c2ccc(-c3ccnc(F)c3)nc2n1 [Example 11au] | > 4.96
C[C@H]1COCCN1c1nc(N2CCCC(CO)C2)nc2nc(-c3cccc(C(N)=O)c3)ccc12 (stereo partly shown) [Example 12d] | > 4.96
C[C@H]1COCCN1c1nc(N2CCOC[C@@H]2C)c2ccc(-c3ccc(CNc4cc[nH]n4)o3)nc2n1 [Example 17i] | > 4.96
C[C@@H]1CN(c2nc(N3CCOC[C@@H]3C)c3ccc(-c4ccncc4)nc3n2)C[C@H](C)O1 [Example 11ce] | > 4.96

Same assay, conditions: Homo sapiens; MDA-MB-468 cells, 2 hours; read-out: IC50, phospho-Ser473 Akt assay (cellular IC50, measured by pAkt)

pIC50 | Compound
6.30 | CC(C)S(=O)(=O)Nc1cccc(-c2ccc3c(N4CCOC[C@@H]4C)nc(N4CCOC[C@@H]4C)nc3n2)c1 [Example 25b]
7.22 | C[C@H]1COCCN1c1nc(N2CCOC[C@@H]2C)c2ccc(-c3ccc4[nH]nc(N)c4c3)nc2n1 [Example 11ds, 5-[2,4-Bis-((S)-3-methyl-morpholin-4-yl)-pyrido[2,3-d]pyrimidin-7-yl]-1H-indazol-3-ylamine]

Same assay, conditions: Homo sapiens; MDA-MB-468 cells, compounds of Formula I(B); read-out: IC50 values against mTOR (phospho-Ser473 Akt assay)

pIC50 | Compound
> 7.00 | COc1ccc(-c2ccc3c(N4CCOC[C@@H]4C)nc(N4CCOC[C@@H]4C)nc3n2)cc1CO [Example 11a]
